# Laboratory results: patent US9745274B2, “Compound, organic cation transporter 3 detection agent, and organic cation transporter 3 activity inhibitor” (SHIN NIPPON BIOMEDICAL LABORATORIES, LTD., priority 2013, dated 2017)
# Legend:
# [1] = target: T1, human organic cation transporter 3 (hOCT3) (Homo sapiens, UniProt O75751); experiment: Histamine incorporation experiment in HEK293 cells expressing hOCT3 (OCT3 inhibition activity); assay type: cell-based; conditions: for OCT3 Inhibition Rate (%): Tables 3-1 to 3-15, in a manner similar to Example 12 (30 μM there), concentration not given in the tables; for remaining activity at 10 µM / remaining activity at 30 µM: HEK293, 1 min, no inhibitor = 100%, read-out: Histamine Incorporation Rate to Control (%); for remaining activity at 10 µM / inhibition at 10 µM: Compound Concentration 10 μM; for remaining activity at 30 µM / inhibition at 30 µM: Compound Concentration 30 μM; for remaining activity at 30 µM: [3H]histamine 100 nM, 1 minute; for inhibition at 10 µM / inhibition at 30 µM: HEK293, 100% minus histamine incorporation rate
# T1 construct: expressed in transfected cells; host or cells: HEK293
# T1 sequence (O75751 1-556): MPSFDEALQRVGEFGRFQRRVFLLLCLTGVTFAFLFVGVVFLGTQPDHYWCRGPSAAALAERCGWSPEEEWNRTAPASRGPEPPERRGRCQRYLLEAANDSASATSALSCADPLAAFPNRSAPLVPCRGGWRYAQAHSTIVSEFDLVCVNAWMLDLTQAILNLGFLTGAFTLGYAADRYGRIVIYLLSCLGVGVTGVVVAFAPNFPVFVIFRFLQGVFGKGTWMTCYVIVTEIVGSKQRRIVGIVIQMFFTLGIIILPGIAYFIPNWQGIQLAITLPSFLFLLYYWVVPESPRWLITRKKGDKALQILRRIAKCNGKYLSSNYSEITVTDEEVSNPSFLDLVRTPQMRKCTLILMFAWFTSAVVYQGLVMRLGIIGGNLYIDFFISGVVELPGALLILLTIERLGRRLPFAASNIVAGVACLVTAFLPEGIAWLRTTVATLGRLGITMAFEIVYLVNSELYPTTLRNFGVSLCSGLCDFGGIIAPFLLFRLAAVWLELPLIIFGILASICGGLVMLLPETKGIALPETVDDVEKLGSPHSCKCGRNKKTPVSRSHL
# Method: In order to measure an activity that inhibits OCT3 from incorporating a substrate (OCT3 inhibition activity) for each compound, histamine incorporation experiments as described below were performed.
# Histamine incorporation experiments were performed in accordance with a method disclosed in Br J Pharmacol. 2002; 136(6): 829-836. In the experiments, HEK293 cells were used. The HEK293 cell is a human embryonal renal cell strain expressing human organic cation transporter 3 (hOCT3). The HEK 293 cells were inoculated onto 24-well plates at 1.5×10^5 cells/well, and were cultivated overnight in a carbon dioxide incubator. Test substances were dissolved in 100% DMSO solution and then dissolved in HBSS-HEPES solution (buffer solution prepared by dissolving 9.7 g Hank's Balanced Salt, 1.4% sodium bicarbonate 25 mL, and 1M HEPES 25 mL in 940 mL ultra pure water, and by adjusting to pH7.4 with 1M sodium hydroxide). After removing culture media for cell culture, pretreatment was performed for 5 minutes with 1 mL HBSS-HEPES solution. Then, the test substance and [3H]histamine (final concentration 100 nM) were added to the cells and reacted for 1 minute at room temperature. After the reaction was completed, the reaction was stopped by ice-cooled HBSS-HEPES solution, extracellular fluid was aspirated by an aspirator, and then the cells were washed twice with HBSS-HEPES. After washing, the cells were dissolved in 0.5M sodium hydroxide solution. The amount of histamine in the cells was found by measuring a radioactivity in a cell lysis solution by a liquid scintillation counter. Protein content in the cells was measured by Lowry method (J Biol Chem. 1951; 193(1): 265-75) by using the cell lysis solution, and translated into histamine incorporation amount per protein content for each experiment. A histamine incorporation rate (%) in the presence of 30 μM of the test substance was calculated by regarding a histamine incorporation amount in a case of no incorporation inhibitor as 100% (control) of histamine incorporation rate. A value (%) obtained by subtracting the histamine incorporation rate from 100(%) was calculated as an OCT3 inhibition rate (%).
# Note that a histamine incorporation rate (%) in the presence of 10 μM of the test substance was calculated by regarding a histamine incorporation amount in a case of no incorporation inhibitor as 100% (control) of histamine incorporation rate. A value (%) obtained by subtracting the histamine incorporation rate from 100(%) was calculated as an OCT3 inhibition rate (%). […]
# [2] = target: T1, human organic cation transporter 3 (hOCT3); experiment: as above; assay type: cell-based; conditions: control curve; for IC80: HEK293
compound,measurement,setting,value
CN(C)c1nc(CSCC/C(N)=N/S(=O)(=O)C(F)(F)F)cs1 [SR-2005],OCT3 Inhibition Rate (%),[1],−7.8%
Cc1nc(CCSCc2csc(N(C)C)n2)[nH]c(=O)c1CCc1ccccc1 [SR-2011],OCT3 Inhibition Rate (%),[1],37.9%
NC(N)=Nc1cccc(CSCC/C(N)=N/S(=O)(=O)C(F)(F)F)c1 [SR-2020],OCT3 Inhibition Rate (%),[1],25.4%
NC(N)=Nc1cccc(CSCC/C(N)=N/S(=O)(=O)C(F)(F)F)n1 [SR-2022],remaining activity at 10 µM,[1],50%
same,remaining activity at 30 µM,[1],21%
same,inhibition at 10 µM,[1],50%
same,inhibition at 30 µM,[1],79%
same,IC80,[2],30 µM
same,IC50,[2],10.5 µM
NC(N)=Nc1cc(CSCC/C(N)=N/S(=O)(=O)C(F)(F)F)ccn1 [SR-2023],remaining activity at 10 µM,[1],36.7%
same,remaining activity at 30 µM,[1],15%
same,inhibition at 10 µM,[1],63.3%
same,inhibition at 30 µM,[1],85%
same,IC80,[2],28 µM
same,IC50,[2],6.5 µM
Cc1nc(CCSCc2cccc(N=C(N)N)n2)[nH]c(=O)c1CCc1ccccc1 [SR-2036],remaining activity at 10 µM,[1],33.7%
same,remaining activity at 30 µM,[1],15.4%
same,inhibition at 10 µM,[1],66.3%
same,inhibition at 30 µM,[1],84.6%
same,IC80,[2],27 µM
same,IC50,[2],5.9 µM
CN/C(=C\[N+](=O)[O-])NCCSCc1csc(N=C(N)N)n1 [SR-2044],OCT3 Inhibition Rate (%),[1],7.9%
NC(N)=Nc1nc(CSCCNC(=O)CO)cs1 [SR-2045],remaining activity at 10 µM,[1],56.6%
same,remaining activity at 30 µM,[1],35.2%
same,inhibition at 10 µM,[1],43.4%
same,inhibition at 30 µM,[1],64.8%
same,IC80,[2],56 µM
same,IC50,[2],12.4 µM
NC(N)=Nc1nc(CSCCc2ncc(CCc3ccccc3)o2)cs1 [SR-2051],OCT3 Inhibition Rate (%),[1],38.8%
Cc1nc(CCCOc2cc(N=C(N)N)ccn2)[nH]c(=O)c1CCc1ccccc1 [SR-2064],OCT3 Inhibition Rate (%),[1],17.5%
NC(N)=Nc1nc(CCCC/C(N)=N/S(N)(=O)=O)cs1 [SR-2066],remaining activity at 30 µM,[1],58.1%
same,inhibition at 30 µM,[1],41.9%
"N=C(N)CCCCc1csc(N=C(N)N)n1 [SR-2068, 5-[2-(diaminomethyleneamino)thiazole-4-yl]pentaimideamide]",OCT3 Inhibition Rate (%),[1],28.5%
N#C/N=C(\N)NCCCCc1csc(N=C(N)N)n1 [SR-2069],remaining activity at 30 µM,[1],48.6%
same,inhibition at 30 µM,[1],51.4%
N=C(N)NCCCCc1csc(N=C(N)N)n1 [SR-2071],OCT3 Inhibition Rate (%),[1],27.0%
NC(N)=Nc1nc(CCCCNC(=O)CO)cs1 [SR-2073],remaining activity at 30 µM,[1],52.9%
same,inhibition at 30 µM,[1],47.1%
CNC(=O)CCCCc1csc(N=C(N)N)n1 [SR-2075],OCT3 Inhibition Rate (%),[1],23.9%
CNC(=O)CCSCc1csc(N=C(N)N)n1 [SR-2203],OCT3 Inhibition Rate (%),[1],16.3%
CNCCCCc1csc(N=C(N)N)n1 [SR-2204],OCT3 Inhibition Rate (%),[1],3.4%
"CC(C)c1nc(CSCCC(N)=NS(N)(=O)=O)cs1 [SR-2207, (Z)-3-((2-isopropylthiazol-4-yl)methylthio)-N′-sulfamoylpropanimidamide]",OCT3 Inhibition Rate (%),[1],6.7%
Cc1nc(CCSCc2csc(N=C3NCCN3)n2)[nH]c(=O)c1CCc1ccccc1 [SR-2213],OCT3 Inhibition Rate (%),[1],45.8%
NC(N)=Nc1nc(CSCCC(N)=NS(=O)(=O)C(F)(F)F)cs1 [SR-2216],OCT3 Inhibition Rate (%),[1],61.5%
CC(=O)NC(=O)CCSCc1csc(N=C(N)N)n1 [SR-2225],OCT3 Inhibition Rate (%),[1],30.4%
NC(N)=Nc1nc(CSCCC(=O)NC(=O)c2ccccc2)cs1 [SR-2226],OCT3 Inhibition Rate (%),[1],21.8%
CSc1nc(CSCCC(N)=NS(N)(=O)=O)cs1 [SR-2227],OCT3 Inhibition Rate (%),[1],13.8%
Cc1nc(CSCC/C(N)=N/S(N)(=O)=O)cs1 [SR-2228],OCT3 Inhibition Rate (%),[1],17.6%
NC(N)=Nc1cc(CSCCC(N)=NS(N)(=O)=O)ccn1 [SR-2229],remaining activity at 30 µM,[1],55.8%
same,inhibition at 30 µM,[1],44.2%
NC(N)=Nc1cccc(CSCCC(N)=NS(N)(=O)=O)n1 [SR-2230],remaining activity at 30 µM,[1],41.4%
same,inhibition at 30 µM,[1],58.6%
N=C(N)CCSCc1ccc([N+](=O)[O-])o1 [SR-2233],OCT3 Inhibition Rate (%),[1],4.7%
N=C(N)CCSCc1ccc([N+](=O)[O-])n1Cc1ccccc1 [SR-2234],OCT3 Inhibition Rate (%),[1],50.2%
Cc1nc(CCSCc2ccc([N+](=O)[O-])n2Cc2ccccc2)[nH]c(=O)c1CCc1ccccc1 [SR-2235],OCT3 Inhibition Rate (%),[1],8.7%
N=C(N)NCc1csc(N=C(N)N)n1 [SR-2236],OCT3 Inhibition Rate (%),[1],−1.4%
Cc1nc(CSCC/C(N)=N/S(=O)(=O)C(F)(F)F)cs1 [SR-2238],OCT3 Inhibition Rate (%),[1],−7.4%
Cc1nc(CSCCc2nc(=O)c(CCc3ccccc3)c(C)[nH]2)cs1 [SR-2239],OCT3 Inhibition Rate (%),[1],33.2%
NC(CCSCc1cscn1)=NS(N)(=O)=O [SR-3001],OCT3 Inhibition Rate (%),[1],−14.7%
NC(CCSCc1cscn1)=NS(=O)(=O)C(F)(F)F [SR-3002],OCT3 Inhibition Rate (%),[1],−0.2%
Cc1[nH]c(CCSCc2cscn2)nc(=O)c1CCc1ccccc1 [SR-3003],OCT3 Inhibition Rate (%),[1],40.6%
CSc1nc(CSCCC(N)=NS(=O)(=O)C(F)(F)F)cs1 [SR-3012],OCT3 Inhibition Rate (%),[1],−8.1%
CC(C)c1nc(CSCCC(N)=NS(=O)(=O)C(F)(F)F)cs1 [SR-3021],OCT3 Inhibition Rate (%),[1],−4.0%
NC(N)=Nc1nc(CSc2ccc(F)cc2)cs1 [SR-3123],OCT3 Inhibition Rate (%),[1],47.2%
NC(N)=Nc1nc(COCc2ccc(F)cc2)cs1 [SR-3129],OCT3 Inhibition Rate (%),[1],20.6%
NC(N)=Nc1nc(CCCc2ccc(F)cc2)cs1 [SR-3131],OCT3 Inhibition Rate (%),[1],22.3%
NC(N)=Nc1nc(CNCCc2ccc(F)cc2)cs1 [SR-3136],OCT3 Inhibition Rate (%),[1],28.6%
NC(N)=Nc1nc(CSCCc2ccc(F)cc2)cs1 [SR-3137],OCT3 Inhibition Rate (%),[1],33.3%
N=C(NCc1csc(N=C(N)N)n1)NS(N)(=O)=O [SR-3154],OCT3 Inhibition Rate (%),[1],−11.5%
NC(N)=Nc1nc(CS/C(N)=N\S(N)(=O)=O)cs1 [SR-3155],OCT3 Inhibition Rate (%),[1],−10.3%
NC(N)=Nc1nc(CS/C(N)=N/S(=O)(=O)C(F)(F)F)cs1 [SR-3159],OCT3 Inhibition Rate (%),[1],6.2%
NC(N)=Nc1ncc(CSCCC(N)=NS(=O)(=O)c2ccccc2)s1 [SR-3203],OCT3 Inhibition Rate (%),[1],22.2%
N=C(N)CCSCc1csc(N=C2NCCN2)n1 [SR-3208],OCT3 Inhibition Rate (%),[1],8.7%
CCCCN/C(N)=N/c1nc(CSCCC(=N)N)cs1 [SR-3209],OCT3 Inhibition Rate (%),[1],43.0%
